These results are taken from ChEMBL document CHEMBL1147207 (Eur J Med Chem, 2007).

Activity calls are given as the source filed them. No cut-off for these calls is given here. Bridge positions count the residues as written; N and C are the ends. Square brackets hold non-standard residues; d marks the D form. Peptide text beside a SMILES is read from it. Orn = NCCC[C@H](N)C(=O)O; Aib = CC(C)(N)C(=O)O; Mpa = O=C(O)CCS

In assay [1] the target is T1, Oxytocin receptor (Rattus norvegicus, UniProt P70536).
T1 sequence (P70536 whole entry): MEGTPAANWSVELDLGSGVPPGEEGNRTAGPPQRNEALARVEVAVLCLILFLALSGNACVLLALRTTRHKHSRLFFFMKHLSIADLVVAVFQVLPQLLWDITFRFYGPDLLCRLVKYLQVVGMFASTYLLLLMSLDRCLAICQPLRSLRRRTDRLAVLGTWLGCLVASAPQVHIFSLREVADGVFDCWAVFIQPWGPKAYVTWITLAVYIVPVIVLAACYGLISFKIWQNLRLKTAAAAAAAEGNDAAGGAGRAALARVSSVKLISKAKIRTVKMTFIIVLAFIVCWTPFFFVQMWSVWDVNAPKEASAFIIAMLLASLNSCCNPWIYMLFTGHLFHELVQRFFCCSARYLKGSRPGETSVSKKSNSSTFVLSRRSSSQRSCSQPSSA
Nature of the assay: Antagonist activity in rat uterus by uterotonic assay. The assay is classed as functional, tissue-based. The settings on record: read-out: pA2 (converted).

Assay [2] has as its target T2, Oxytocin receptor (Homo sapiens, UniProt P30559).
T2 sequence (P30559 whole entry): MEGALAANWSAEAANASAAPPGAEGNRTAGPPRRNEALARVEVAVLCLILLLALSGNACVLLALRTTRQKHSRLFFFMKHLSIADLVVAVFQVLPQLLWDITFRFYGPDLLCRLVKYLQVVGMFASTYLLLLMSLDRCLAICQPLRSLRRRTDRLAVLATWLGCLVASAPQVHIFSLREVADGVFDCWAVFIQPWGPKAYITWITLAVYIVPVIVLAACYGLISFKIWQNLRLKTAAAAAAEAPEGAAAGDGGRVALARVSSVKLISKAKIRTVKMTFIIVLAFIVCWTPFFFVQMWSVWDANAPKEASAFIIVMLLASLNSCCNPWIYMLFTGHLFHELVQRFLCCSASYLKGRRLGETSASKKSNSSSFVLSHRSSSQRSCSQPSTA
Briefly: Displacement of [3H]OT from human OT receptor expressed in HEK cells. The assay is classed as cell-based, HEK293. In general terms: Loss of bound radioactivity is the signal in a displacement assay; it reports binding, not function.

The target of assay [3] is T3, Oxytocin receptor (Rattus norvegicus) (UniProt P70536).
T3 sequence (whole entry): T1 sequence (P70536 whole entry)
Briefly: Agonist activity in rat uterus by uterotonic assay. The assay is classed as functional, tissue-based.

The target in assay [4] is Vasopressin V1a receptor (Rattus norvegicus) (UniProt P30560). Nature of the assay: Agonist activity in phenoxybenzamine-treated rat up to 0.16 mg/kg by Pressor assay.
Assay [5] shares this target. Briefly: Antagonist activity in phenoxybenzamine-treated rat by Pressor assay. The settings on record: read-out: pA2 (converted).

Chain of Vasopressin V1a receptor (Rattus norvegicus) (P30560 whole entry, looked up): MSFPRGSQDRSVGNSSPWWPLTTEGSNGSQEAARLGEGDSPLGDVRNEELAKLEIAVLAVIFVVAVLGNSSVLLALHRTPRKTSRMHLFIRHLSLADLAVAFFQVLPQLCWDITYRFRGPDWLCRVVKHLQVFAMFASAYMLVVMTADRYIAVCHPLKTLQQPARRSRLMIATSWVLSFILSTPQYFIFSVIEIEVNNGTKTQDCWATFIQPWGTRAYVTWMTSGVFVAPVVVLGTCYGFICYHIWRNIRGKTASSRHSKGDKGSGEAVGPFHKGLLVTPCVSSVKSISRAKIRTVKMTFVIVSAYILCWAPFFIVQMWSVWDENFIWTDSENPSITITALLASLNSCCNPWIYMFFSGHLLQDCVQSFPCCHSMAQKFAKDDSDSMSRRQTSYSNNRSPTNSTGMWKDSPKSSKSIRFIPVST

In the case of `CC(C)C[C@H](NC(=O)[C@@H](NC(=O)[C@@H]1CSSC[C@H](N)C(=O)N[C@@H](Cc2ccc(O)cc2)C(=O)N[C@@H](C(C)(C)C)C(=O)N[C@@H](CCC(N)=O)C(=O)N[C@@H](CC(N)=O)C(=O)N1)C(C)(C)C)C(=O)NCC(N)=O`, the Kb at Oxytocin receptor [1] is 741 nM. On Oxytocin receptor [2], the IC50 (as a rule, the concentration needed to halve the response being measured) amounted to 51700 nM.
As to `CCOc1ccc(CC2NC(=O)CCSSC[C@@H](C(=O)N3Cc4ccccc4C[C@@H]3C(=O)N[C@@H](CC(C)C)C(=O)N3Cc4ccccc4C[C@@H]3C(N)=O)NC(=O)[C@H](CC(N)=O)NC(=O)[C@H](CCC(N)=O)NC(=O)[C@H]([C@@H](C)CC)NC2=O)cc1` (stereo in doubt), the Kb on Oxytocin receptor [1] is 8.51 nM. This compound also came in with an IC50 at Oxytocin receptor [2] of 25 nM. The compound also displayed an Activity in assay [3] of 0 IU/mg. For the same compound, the outcome in assay [4] was inactive.
Take `CC[C@H](C)[C@@H]1NC(=O)[C@H](Cc2ccc(O)cc2)NC(=O)CCSSC[C@@H](C(=O)N2Cc3ccccc3C[C@@H]2C(=O)N[C@@H](CC(C)C)C(=O)NCC(N)=O)NC(=O)[C@H](CC(N)=O)NC(=O)[C@H](CCC(N)=O)NC1=O`: on Oxytocin receptor [1], the Kb is 10 nM. Besides, the IC50 at Oxytocin receptor [2] was found to be 380 nM. The compound also showed an Activity in assay [3] of 1 IU/mg. In assay [4], the result was inactive.
In assay [3], `CC(C)C[C@H](NC(=O)[C@H](NC(=O)[C@@H]1CSSC[C@H](N)C(=O)N[C@@H](Cc2ccc(O)cc2)C(=O)N[C@@H](C(C)(C)C)C(=O)N[C@@H](CCC(N)=O)C(=O)N[C@@H](CC(N)=O)C(=O)N1)C(C)(C)C)C(=O)NCC(N)=O` gave an Activity of 0 IU/mg. The outcome in assay [4] was inactive.
As to `CCOc1ccc(C[C@H]2NC(=O)CCSSC[C@@H](C(=O)N3CCC[C@H]3C(=O)N[C@@H](CCCN)C(=O)NCC(N)=O)NC(=O)[C@H](CC(N)=O)NC(=O)[C@H]([C@@H](C)O)NC(=O)[C@H]([C@@H](C)CC)NC2=O)cc1` [ATOSIBAN] ([Mpa][dY](Et)ITNCP[Orn]G-NH2; disulfide 1-6), the Kb on Oxytocin receptor [1] is 5.13 nM. For the same compound, the Activity in assay [3] was found to be 0 IU/mg.
On to `CCOc1ccc(C[C@H]2NC(=O)CCSSC[C@@H](C(=O)NC(C)(C)C(=O)N[C@@H](CC(C)C)C(=O)N3Cc4ccccc4C[C@@H]3C(N)=O)NC(=O)[C@H](CC(N)=O)NC(=O)[C@H](CCC(N)=O)NC(=O)[C@H]([C@@H](C)CC)NC2=O)cc1`, for which the Kb at Oxytocin receptor [1] is 13.5 nM. The IC50 on Oxytocin receptor [2] worked out at 55 nM.
As to `CCOc1ccc(C[C@H]2NC(=O)[C@@H](N)CSSC[C@@H](C(=O)N3CCC[C@H]3C(=O)N[C@@H](CC(C)C)C(=O)NCC(N)=O)NC(=O)[C@H](CC(N)=O)NC(=O)[C@H](CCC(N)=O)NC(=O)[C@H]([C@@H](C)CC)NC2=O)cc1`, the Kb at Oxytocin receptor [1] is 43.7 nM. The Activity in assay [3] turned out to be 0 IU/mg.
On to `CC[C@H](C)[C@@H]1NC(=O)[C@H]2Cc3ccccc3CN2C(=O)CCSSC[C@@H](C(=O)NC(C)(C)C(=O)N[C@@H](CC(C)C)C(=O)NCC(N)=O)NC(=O)[C@H](CC(N)=O)NC(=O)[C@H](CCC(N)=O)NC1=O`, for which the Kb on Oxytocin receptor [1] is 123 nM. Moreover, the concentration for half-maximal inhibition (IC50) at Oxytocin receptor [2] turned out to be 8500 nM. Besides, the Activity in assay [3] was found to be 0 IU/mg. Besides, the outcome in assay [4] was inactive.
With `CCc1ccc(C[C@H]2NC(=O)CCSSC[C@@H](C(=O)N3CCC[C@H]3C(=O)N[C@@H](CC(C)C)C(=O)NCC(N)=O)NC(=O)[C@H](CC(N)=O)NC(=O)[C@H](CCC(N)=O)NC(=O)[C@H]([C@@H](C)CC)NC2=O)cc1`, the Kb in assay [5] was 151 nM.
Consider `CCOc1ccc(CC2NC(=O)CCSSC[C@@H](C(=O)N[C@H](C(=O)N[C@@H](CC(C)C)C(=O)NCC(N)=O)C(C)(C)C)NC(=O)[C@H](CC(N)=O)NC(=O)[C@H](CCC(N)=O)NC(=O)[C@H](C(C)(C)C)NC2=O)cc1` (stereo in doubt), for which the Kb at Oxytocin receptor [1] was 355 nM. For the same compound, the IC50 at Oxytocin receptor [2] turned out to be 7850 nM. The compound also gave an Activity in assay [3] of 0 IU/mg. The outcome in assay [4] was inactive.
For `CCOc1ccc(CC2NC(=O)CCSSC[C@@H](C(=O)N3CCCC[C@H]3C(=O)N[C@@H](CC(C)C)C(=O)NCC(N)=O)NC(=O)[C@H](CC(N)=O)NC(=O)[C@H](CCC(N)=O)NC(=O)[C@H]([C@@H](C)CC)NC2=O)cc1` (stereo in doubt) the same measures were 12.6 nM, 40 nM, 0 IU/mg and “inactive”.
At Oxytocin receptor [2], `CC[C@H](C)[C@@H]1NC(=O)[C@H](Cc2ccc(O)cc2)NC(=O)[C@@H](N)CSSC[C@@H](C(=O)N2CCCC[C@H]2C(=O)N[C@@H](CC(C)C)C(=O)NCC(N)=O)NC(=O)[C@H](CC(N)=O)NC(=O)[C@H](CCC(N)=O)NC1=O` yielded an IC50 of 7 nM. The compound also had an Activity in assay [3] of 79.8 IU/mg. Further, the result in assay [4] was inactive.
Compound `CC[C@H](C)[C@@H]1NC(=O)[C@H](Cc2ccc(O)cc2)NC(=O)[C@@H](N)CSSC[C@@H](C(=O)N[C@@H](C(=O)N[C@@H](CC(C)C)C(=O)NCC(N)=O)C(C)(C)C)NC(=O)[C@H](CC(N)=O)NC(=O)[C@H](CCC(N)=O)NC1=O` registered an Activity in assay [3] of 1.8 IU/mg. In addition, the result in assay [4] was inactive.
In the case of `CCOc1ccc(CC2NC(=O)CCSSC[C@@H](C(=O)N3Cc4ccccc4C[C@@H]3C(=O)N[C@@H](CC(C)C)C(=O)NC(C)(C)C(N)=O)NC(=O)[C@H](CC(N)=O)NC(=O)[C@H](CCC(N)=O)NC(=O)[C@H]([C@@H](C)CC)NC2=O)cc1` (stereo in doubt), the Kb at Oxytocin receptor [1] is 4.9 nM. For the same compound, at Oxytocin receptor [2], the IC50 is 80 nM. In assay [3], this compound yielded an Activity of 0 IU/mg. In addition, the result in assay [4] was inactive.
Take `CCOc1ccc(CC2NC(=O)CCSSC[C@@H](C(=O)NC(C)(C)C(=O)N[C@@H](CC(C)C)C(=O)NCC(N)=O)NC(=O)[C@H](CC(N)=O)NC(=O)[C@H](CCC(N)=O)NC(=O)[C@H]([C@@H](C)CC)NC2=O)cc1` (stereo in doubt): on Oxytocin receptor [1], the Kb is 17.8 nM. Also, the IC50 on Oxytocin receptor [2] came to 485 nM. In assay [3], this compound yielded an Activity of 0 IU/mg. Further, in assay [4], the outcome was inactive.
At Oxytocin receptor [2], `CC[C@H](C)[C@@H]1NC(=O)[C@H](Cc2ccc(O)cc2)NC(=O)[C@@H](N)CSSC[C@@H](C(=O)N[C@H](C(=O)N[C@@H](CC(C)C)C(=O)NCC(N)=O)C(C)(C)C)NC(=O)[C@H](CC(N)=O)NC(=O)[C@H](CCC(N)=O)NC1=O` returned an IC50 of 1380 nM.
For the compound `CCOc1ccc(CC2NC(=O)CCSSC[C@@H](C(=O)N[C@H](C(=O)N[C@@H](CC(C)C)C(=O)NCC(N)=O)C(C)(C)C)NC(=O)[C@H](CC(N)=O)NC(=O)[C@H](CCC(N)=O)NC(=O)[C@H]([C@@H](C)CC)NC2=O)cc1` (stereo in doubt), the Kb on Oxytocin receptor [1] was 11.7 nM. Besides, at Oxytocin receptor [2], the IC50 worked out at 1000 nM. Besides, in assay [3], the Activity stood at 0 IU/mg. The outcome in assay [4] was inactive.
On to `CCc1ccc(C[C@H]2NC(=O)CCSSC[C@@H](C(=O)NC(C)(C)C(=O)N[C@@H](CC(C)C)C(=O)NCC(N)=O)NC(=O)[C@H](CC(N)=O)NC(=O)[C@H](CCC(N)=O)NC(=O)[C@H]([C@@H](C)CC)NC2=O)cc1`, for which the Kb is 5.01 nM on Oxytocin receptor [1] and 316 nM in assay [5]. This compound also had an Activity in assay [3] of 0 IU/mg. For the same compound, the result in assay [4] was inactive.
Compound `CC[C@H](C)[C@@H]1NC(=O)[C@H](Cc2ccc(O)cc2)NC(=O)[C@@H](N)CSSC[C@@H](C(=O)NC(C)(C)C(=O)N[C@@H](CC(C)C)C(=O)NCC(N)=O)NC(=O)[C@H](CC(N)=O)NC(=O)[C@H](CCC(N)=O)NC1=O` (H-CYIQNC[Aib]LG-NH2; disulfide 1-6) gave an IC50 on Oxytocin receptor [2] of 75 nM. In assay [3], this compound showed an Activity of 1.7 IU/mg. The result in assay [4] was inactive.
Take `CC[C@H](C)[C@@H]1NC(=O)[C@H](Cc2ccc(O)cc2)NC(=O)CCSSC[C@H](C(=O)N2CCC[C@H]2C(=O)N[C@@H](CC(C)C)C(=O)NCC(N)=O)NC(=O)[C@H](CC(N)=O)NC(=O)[C@H](CCC(N)=O)NC1=O`: the Activity in assay [3] turned out to be 803 IU/mg.
`CCOc1ccc(CC2NC(=O)CCSSC[C@@H](C(=O)NC(C)(C)C(=O)N[C@@H](CC(C)C)C(=O)N3CCCC[C@@H]3C(N)=O)NC(=O)[C@H](CC(N)=O)NC(=O)[C@H](CCC(N)=O)NC(=O)[C@H]([C@@H](C)CC)NC2=O)cc1` (stereo in doubt) had an Activity in assay [3] of 0 IU/mg. Further, the outcome in assay [4] was inactive.
As to `CCc1ccc(C[C@@H]2NC(=O)CCSSC[C@@H](C(=O)NC(C)(C)C(=O)N[C@@H](CC(C)C)C(=O)NCC(N)=O)NC(=O)[C@H](CC(N)=O)NC(=O)[C@H](CCC(N)=O)NC(=O)[C@H]([C@@H](C)CC)NC2=O)cc1`, the Kb on Oxytocin receptor [1] was 39.8 nM. The Activity in assay [3] is 0 IU/mg. For the same compound, the result in assay [4] was inactive.
In turn, `CC[C@H](C)[C@@H]1NC(=O)[C@H](Cc2ccc(O)cc2)NC(=O)[C@@H](N)CSSC[C@@H](C(=O)N2CCC[C@H]2C(=O)N[C@@H](CC(C)C)C(=O)NCC(N)=O)NC(=O)[C@H](CC(N)=O)NC(=O)[C@H](CCC(N)=O)NC1=O` displayed an Activity in assay [3] of 546 IU/mg.
